Test results reported in patent US11478551B2, “Long-acting adrenomedullin derivative” (University of Miyazaki, priority 2015, dated 2022).

Columns and labels:
[1] = tested on: TNBS-induced colitis models; experiment: 2,4,6-trinitrobenzenesulfonic acid (TNBS)-induced colitis model; assay type: in vivo; settings: 1 nmol/kg subcutaneous, rat
Experimental: 7-week-old male Wistar rats were acclimatized for 1 week. […] Fasting was carried out for 24 hours concurrently with the subcutaneous administration to remove stool from the body. Colitis models were prepared by procedures described below. The concentration of TNBS (Nacalai Tesque, Inc.) was adjusted to 30 mg/500 μL (in a 50% aqueous ethanol solution). 50 mg of pentobarbital was intraperitoneally administered, and a polyethylene catheter was inserted by 8 cm from the anus under anesthesia while slowly rotated, followed by injection of 500 μL of the drug solution (day 1). Then, the inverted state was maintained for 2 minutes. The body weight and the form of diarrhea were evaluated every day. 14 days later, 50 mg of pentobarbital was intraperitoneally administered, and blood collection from the heart and excision of the large intestine were carried out under anesthesia. The length and weight of the excised intestinal tract were measured and compared between the groups. […] In the diagram, (a) depicts the day on which the compound (8) or physiological saline was subcutaneously administered and fasting was started, and (b) depicts the day on which TNBS was administered.

[2] = tested on: vascular occlusion model rats; experiment: Vascular occlusion model, Morris water maze test; assay type: in vivo; settings: 1 and 10 nmol/kg subcutaneous, rat
Experimental: Physiological saline was administered as a vehicle to a control group. Then, the bilateral vertebral arteries were permanently occluded under anesthesia. On the next day, the bilateral common carotid arteries were occluded for 30 minutes under anesthesia using a suture thread. Then, the suture thread was removed, and blood flow was restarted. The date of the bilateral common carotid artery occlusion was defined as the date of the vascular occlusion model preparation, i.e., day 0. 9 days after the model preparation, the rat was caused to swim in the Morris water maze in one trial (training). The hidden platform test was conducted at intervals of 4 trials/day for 5 days from 10 days after the model preparation. On the fifth day of the hidden platform test (14 days after the model preparation), the probe test was conducted 1 hour after the final trial.
The Morris water maze test was conducted using an experimental apparatus described below. A round pool having a diameter of 150 cm, a height of 45 cm, and a water depth of 30 cm was provided. A clear colorless platform having a diameter of 12 cm was positioned approximately 1 cm below the water surface in the round pool. The water temperature of the round pool was set to 23±1° C. Indirect lighting was disposed within the room having the experimental apparatus placed therein, and visual cues (calendar, ball, cube and striped sheet) for the animals were arranged therein. In the test period, this arrangement was always constant. A video tracking system (Smart, Panlab, S.L.U.) was used in measurement.
The hidden platform test was conducted by procedures described below. […] The swimming time to arrive at the platform from the start (escape latency) was measured. […]
The probe test was conducted by procedures described below. […], the swimming time in a zone having the platform placed therein was measured. The stay rate (%) was calculated according to an expression given below using the measured swimming time. […]

Wistar rat = experiment: Blood pressure-lowering effect, single intravenous dose in rat under anesthesia; assay type: in vivo; settings: 1 nmol/kg, single dose into the vein
Experimental: Each compound prepared in experiments I-1 and II-1 or full-length AM was administered in a single dose of 1 nmol/kg into the vein of each rat under anesthesia, and change in the blood pressure of the rat was observed. Each 11 to 14-week-old male Wistar rat was anesthetized by the inhalation of isoflurane. After tracheotomy, inhalational anesthesia was controlled at an isoflurane concentration of 1.5 to 2.5% and a flow rate of 0.6 to 0.8 L/min. The right jugular vein was isolated from the rat, and a catheter tube corresponding to 26 G was inserted thereto. Next, the left carotid artery was isolated from the rat thus treated, and a catheter tube corresponding to 23 G was inserted thereto. From the catheter tube of the right jugular vein, a physiological saline-heparin solution (physiological saline: 100 mL; heparin: 1000 units) was infused at 2.4 mL/hr. […] The catheter inserted in the carotid artery was connected to a pressure transducer. […] In the diagram, the ordinate depicts a difference obtained by subtracting the average blood pressure before the administration of each drug from the average blood pressure at the time of the administration of each drug.

[3] = tested on: adjuvant-induced arthritis models; experiment: Adjuvant-induced arthritis model; assay type: in vivo; settings: 1 and 10 nmol/kg subcutaneous, rat
Experimental: The compound (8) was subcutaneously administered to each rat. […] Physiological saline was administered as a vehicle to a control group. The paw volumes and swelling rates of the right and left legs were measured on days 0 (day before the adjuvant administration), 4, 7, 10 and 14 using a paw volume measurement apparatus (MK-550, Muromachi Kikai Co., Ltd.). Inflammation scores on days 0 (day before the adjuvant administration), 4, 7, 10 and 14 were evaluated on the basis of the scores shown in Table 5.

wound models = experiment: Wound model; assay type: in vivo, mouse; settings: 1 nmol/kg subcutaneous single dose, BALB/c-nu/nu mice
Experimental: 5-week-old male BALB/c-nu/nu mice (Charles River Laboratories Japan, Inc.) were purchased and acclimatized for 1 week. Then, 5 mg of pentobarbital was intraperitoneally administered to each mouse for anesthesia. The skin was disinfected using ethanol for disinfection. The skin of the back was pulled with fingers with the mouse in the lateral position, and pressed and cut with a round knife for skin biopsy (disposable biopsy punch with plunger system) from one side toward the other side on a disinfected mat for drafting to prepare two defective injuries each having a diameter of 6 mm. […] Physiological saline was administered as a vehicle to a control group. A dressing was applied to cover the back including the wound sites. Change in the wound areas were observed over time.

[4] = tested on: spontaneously hypertensive rat (SHR); experiment: Effect of suppressing increase in blood pressure in spontaneously hypertensive rat (SHR) fed high-salt diet; assay type: in vivo; settings: 336 μg/100 μL subcutaneous single dose, SHR on high-salt diet (8% NaCl), 9 days after administration
Experimental: Each 8-week-old male SHR (approximately 200 g) was fed with a high-salt diet (8% NaCl). The compound (8) was administered in a form dissolved in physiological saline at the time of feeding with the high-salt diet. 100 μL of physiological saline was subcutaneously administered in a single dose to each male SHR (approximately 200 g) in the same condition as above in a control group.

With “GL-2-branched CH3O-PEG (60k)-CH2-^αNH-(h.AM (1-52)) [Compound (8)]” the “pathological changes of the large intestine (autopsy report)” value [1] was “evidently fewer”, the “weight loss due to the development of colitis” value [1] was “improved” and the “decrease in the intestinal tract length of the large intestine compared to the vehicle control group” value ([1]; 14 days later) was “evidently suppressed”. For the same substance, the “increase in the weight of the large intestine compared to the vehicle control group” value ([1]; 14 days later) was “evidently suppressed”, the “death rate associated with the operation for the bilateral common carotid artery occlusion” value [2] was “no significant difference” and the “escape latency in the hidden platform test as compared to the vehicle control group” value [2] was “shortened”. For the same substance, the “stay rate in the probe test as compared to the vehicle control group” value [2] was “significantly increased”, the “decrease in the blood pressure immediately after the administration, as compared to compound (2)” value (Wistar rat) was “further suppressed” and the “rapidly decreased blood pressure immediately after the administration” value (Wistar rat) was “not observed”. For the same substance, the “arthritis score (inflammation score) as compared to the vehicle control group” value [3] was “significantly decreased”, the “paw volume as compared to the vehicle control group” value [3] was “significantly decreased” and the “swelling rate as compared to the vehicle control group” value [3] was “significantly decreased”. The “reduction in the wound areas compared to the vehicle control group” value (wound models) was “faster” and the “increase in the blood pressure compared to the control group” value [4] was “suppressed”.
